This note sets out measurements from patent US9650616B2, “Methods for increasing grain yield” (University of Florida Research Foundation, Inc., priority 2014, dated 2017).

The assay has as its target T1, maize endosperm AGPase, large subunit variant GGR (Q96G, D161G, A443R; numbering of SEQ ID NO: 20) (Zea mays, UniProt P55241+Q84PF5, A443R/D161G/Q96G).
T1 sequence (P55241 46-516 A443R/D161G/Q96G): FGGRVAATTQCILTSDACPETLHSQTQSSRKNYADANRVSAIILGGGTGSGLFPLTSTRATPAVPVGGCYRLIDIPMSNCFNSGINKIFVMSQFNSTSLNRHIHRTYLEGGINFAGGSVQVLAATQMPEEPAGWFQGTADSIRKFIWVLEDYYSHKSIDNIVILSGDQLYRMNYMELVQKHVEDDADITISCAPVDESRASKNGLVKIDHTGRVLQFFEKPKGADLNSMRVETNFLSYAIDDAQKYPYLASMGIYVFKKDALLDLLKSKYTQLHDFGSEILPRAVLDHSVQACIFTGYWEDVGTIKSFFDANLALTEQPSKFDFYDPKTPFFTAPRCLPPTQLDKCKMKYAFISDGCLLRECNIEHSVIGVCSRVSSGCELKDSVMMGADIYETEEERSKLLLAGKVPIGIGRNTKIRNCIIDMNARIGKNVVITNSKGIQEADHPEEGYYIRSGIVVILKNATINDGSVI
T1 sequence (Q84PF5 1-474): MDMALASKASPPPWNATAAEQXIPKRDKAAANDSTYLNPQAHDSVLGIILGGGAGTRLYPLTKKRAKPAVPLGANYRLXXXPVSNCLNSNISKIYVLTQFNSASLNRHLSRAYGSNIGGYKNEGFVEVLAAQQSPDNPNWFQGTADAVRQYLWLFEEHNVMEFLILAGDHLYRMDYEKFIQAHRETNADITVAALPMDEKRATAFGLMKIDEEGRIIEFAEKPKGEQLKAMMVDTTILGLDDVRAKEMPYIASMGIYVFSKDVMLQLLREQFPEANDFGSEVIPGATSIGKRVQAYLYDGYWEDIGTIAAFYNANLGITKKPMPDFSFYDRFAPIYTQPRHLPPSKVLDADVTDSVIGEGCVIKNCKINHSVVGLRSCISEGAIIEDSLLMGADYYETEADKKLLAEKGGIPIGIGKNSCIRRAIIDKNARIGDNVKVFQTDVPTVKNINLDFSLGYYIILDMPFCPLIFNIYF
The experiment in a line: Pi inhibition in the absence of 3-PGA, GGR. In kind it is biochemical. The method, then:
Next, the kinetics of the GGR mutant were further investigated by following Pi inhibition in the presence and absence of 3-PGA. Experiments were performed by keeping both substrates constant and non-saturating at several fixed concentrations of Pi.
A similar examination of the Pi inhibition was then followed with GGR in the absence of 3-PGA.

With `Nc1ncnc2c1ncn2[C@@H]1O[C@H](COP(=O)(O)OP(=O)(O)OP(=O)(O)O)[C@@H](O)[C@H]1O` [ATP], the “ATP Km, fold lower than wt AGPase” value (Pi inhibition assay) is given as “approximately 40 fold”. Also, the Km (read-out: Km (ATP), ATP varied, Pi inhibition, NC) is 540 µM.
